Laboratory results published in patent US11168102B1, “Bicyclic heteroaryl compounds and uses thereof” (Revolution Medicines, Inc., priority 2019, dated 2021).

These compounds were tested on cellular pERK in PC-9 cells (EGFR Ex19Del) (assay: Potency assay: pERK (AlphaLISA SureFire Ultra p-ERK1/2) in PC-9 cells). Conditions: Homo sapiens, PC-9, 1 h, PC-9 cells (EGFR Ex19Del), 1 hour incubation, AlphaLISA SureFire Ultra p-ERK1/2; read-out: SOS1 pERK IC50.
Assay type: cell-based

SMILES	IC50
COC1(c2cc3c(N[C@H](C)c4nccc(C(F)F)c4F)ncnc3n(C)c2=O)CCN(C(C)=O)CC1 [Example 62, 6-(1-acetyl-4-methoxy-4-piperidyl)-4-[[(1R)-1-[4-(difluoromethyl)-3-fluoro-2-pyridyl]ethyl]amino]-8-methyl-pyrido[2,3-d]pyrimidin-7-one]	262 nM
COC1(c2cc3c(N[C@H](C)c4cccc(C(F)F)c4F)ncnc3n(C)c2=O)CCCS(=O)(=O)CC1 (stereo partly drawn) [Example 32-33]	85.9 nM
C[C@@H](Nc1ncnc2c1cc(C1(F)CCS(=O)(=NC3CC3)CC1)c(=O)n2C)c1cccc2c1OCC2(F)F (stereo partly drawn) [Example 56-4]	50 nM
Cc1nc(N[C@H](C)c2cc(N)cc(C(F)(F)F)c2)c2cc(C3CCNCC3)c(=O)[nH]c2n1 [Example 8, (R)-4-((1-(3-amino-5-(trifluoromethyl)phenyl)ethyl)amino)-2-methyl-6-(piperidin-4-yl)pyrido[2,3-d]pyrimidin-7(8H)-one]	2130 nM
CC(=O)N1CCC(c2cc3c(N[C@H](C)c4cc(C(F)F)c5cc[nH]c5c4)ncnc3n(C)c2=O)CC1 [Example 48, 6-(1-acetyl-4-piperidyl)-4-[[(1R)-1-[4-(difluoromethyl)-1H-indol-6-yl]ethyl]amino]-8-methyl-pyrido[2,3-d]pyrimidin-7-one]	1520 nM
CC(=O)N1CC2(CCN2C(=O)c2cc3c(N[C@H](C)c4cccc(C(F)F)c4F)ncnc3n(C)c2=O)C1 [Example 26-51]	445 nM
COC1(c2cc3c(N[C@H](C)c4cccc(C(F)F)c4F)ncnc3n(C)c2=O)C2CCC1CN(C(C)=O)C2 (stereo partly drawn) [Example 32-22]	180 nM
C[C@@H](Nc1ncnc2c1cc(C1CCS(=O)(=O)CC1)c(=O)n2C)c1ccc(-c2ccccc2CCN)s1 [Example 33-19]	182 nM
COC1(c2cc3c(N[C@H](C)c4cccc(C(F)F)c4F)ncnc3n(C)c2=O)CCN(C(=O)C2CC2)CC1 [Example 32-11]	34.5 nM
COc1ccc(COC2(c3cc4c(N[C@H](C)c5cccc(C(F)F)c5F)ncnc4n(C)c3=O)CC2)cc1 [Example 61, 4-[[(1R)-1-[3-(difluoromethyl)-2-fluoro-phenyl]ethyl]amino]-6-[1-[(4-methoxyphenyl)methoxy]cyclopropyl]-8-methyl-pyrido[2,3-d]pyrimidin-7-one]	647 nM
COC1(c2cc3c(N[C@H](C)c4cccc(C(F)F)c4F)nc(C)nc3n(C)c2=O)CC2(CN(C(C)=O)C2)C1 [Example 32-26]	41.8 nM
COC1(c2cc3c(N[C@H](C)c4cccc(C(F)F)c4F)ncnc3n(C)c2=O)CCC2CN(C(C)=O)CC21 (stereo partly drawn) [Example 32-35]	244 nM
C[C@@H](Nc1ncnc2c1cc(C(=O)N(C)c1cccnc1)c(=O)n2C)c1cccc(C(F)F)c1F [Example 26-10]	2090 nM
COCC(=O)N1CCC(OC)(c2cc3c(N[C@H](C)c4cccc(C(F)F)c4F)ncnc3n(C)c2=O)CC1 [Example 32-13]	44 nM
CO[C@@]1(c2cc3c(N[C@H](C)c4cccc(C(F)F)c4F)ncnc3n(C)c2=O)C[C@@H](C)N(C(C)=O)C1 [Example 32-48]	5.4 nM

The remaining lines, values ahead:

IC50	SMILES
122 nM	C[C@@H](Nc1ncnc2c1cc(C(=O)N1CCCC13CCOC3)c(=O)n2C)c1cccc(C(F)F)c1F (stereo partly drawn) [Example 26-34]
52.7 nM	CO[C@@]1(c2cc3c(N[C@H](C)c4cccc(C(F)F)c4F)ncnc3n(C)c2=O)CCN(C(C)=O)C1 [Example 32-23]
48.5 nM	C[C@@H](Nc1ncnc2c1cc(C1=CCS(=N)(=O)CC1)c(=O)n2C)c1cccc(C(F)F)c1F (stereo partly drawn) [Example 23, 4-(((R)-1-(3-(difluoromethyl)-2-fluorophenyl)ethyl)amino)-6-(1-imino-1-oxido-1,2,3,6-tetrahydro-1λ^6-thiopyran-4-yl)-8-methylpyrido[2,3-d]pyrimidin-7(8H)-one]
29.1 nM	C[C@@H](Nc1ncnc2c1cc(C1=CCS(=O)(=NC#N)CC1)c(=O)n2C)c1cccc(C(F)F)c1F (single isomer, unassigned) [Example 45]
212 nM	C[C@@H](Nc1ncnc2c1cc(-c1cccnc1)c(=O)n2C)c1cccc(C(F)F)c1F [Example 21-15]
252 nM	CCC1(O)CN(C(=O)c2cc3c(N[C@H](C)c4cccc(C(F)F)c4F)ncnc3n(C)c2=O)C1 [Example 26-8]
93.7 nM	C[C@@H](Nc1ncnc2c1cc(C1(O)CCS(=O)(=O)CC1)c(=O)n2C)c1cccc(C(F)F)c1F [Example 28, 4-(4-{[(1R)-1-[3-(difluoromethyl)-2-fluorophenyl]-ethyl]amino}-8-methyl-7-oxo-7H,8H-pyrido[2,3-d]pyrimidin-6-yl)-4-hydroxy-1λ^6-thiane-1,1-dione]
78.5 nM	CC(=O)N1CC=C(c2cc3c(N[C@H](C)c4cccc(C(C)(F)F)c4F)ncnc3n(C)c2=O)CC1 [Example 1-20]
> 10000 nM	C[C@H](Nc1ncnc2c1cc(C1=CCS(=O)(=O)CC1)c(=O)n2C)c1cccc(C(F)(F)C#N)c1F [Example 41-1]
134 nM	C[C@@H](Nc1ncnc2c1cc(C1=CCOCC1)c(=O)n2C)c1cccc(C(F)(F)F)c1 [Example 5, (R)-6-(3,6-dihydro-2H-pyran-4-yl)-8-methyl-4-((1-(3-(trifluoromethyl)phenyl)ethyl)amino)pyrido[2,3-d]pyrimidin-7(8H)-one]
193 nM	C[C@@H](Nc1ncnc2c1cc(C(=O)N1CCOCC13COC3)c(=O)n2C)c1cccc(C(F)F)c1F [Example 26-35]
119 nM	CC(=O)N1CC=C(c2cc3c(N[C@H](C)c4cccc(C(F)F)c4F)ncnc3n(C)c2=O)CC1 [Example 1-16]
93.1 nM	COC1(c2cc3c(N[C@H](C)c4cccc(C(F)F)c4F)ncnc3n(C)c2=O)CC2CN(C(C)=O)C2C1 (stereo partly drawn) [Example 32-36]
58.4 nM	COC1(c2cc3c(N[C@H](C)c4cccc(C(F)F)c4F)ncnc3n(C)c2=O)CCS(=O)(=O)CC1 [Example 32, 4-(4-{[(1R)-1-[3-(difluoro-methyl)-2-fluorophenyl]ethyl]amino}-8-methyl-7-oxo-7H,8H-pyrido[2,3-d]pyrimidin-6-yl)-4-methoxy-λ1^6-thiane-1,1-dione]
191 nM	C[C@@H](Nc1ncnc2c1cc(C1(N)CS(=O)(=O)C1)c(=O)n2C)c1cccc(C(F)F)c1F [Example 31-6]
416 nM	C[C@@H](Nc1ncnc2c1cc(C1=CCN(C3COC3)CC1)c(=O)n2C)c1cccc(C(F)F)c1F [Example 1-22]
83.7 nM	C[C@@H](Nc1ncnc2c1cc(C1(O)CC3(C1)CS(=O)(=O)C3)c(=O)n2C)c1cccc(C(F)F)c1F [Example 28-4]
75.5 nM	COC1(c2cc3c(N[C@H](C)c4cccc(C(F)F)c4F)ncnc3n(C)c2=O)CCS(=N)(=O)CC1 (single isomer, unassigned) [Example 49]

Same assay, conditions: PC-9 cells (EGFR Ex19Del), 1 hour incubation, AlphaLISA SureFire Ultra p-ERK1/2; read-out: SOS1 pERK IC50

IC50	SMILES
21 nM	CC1CC(c2cc3c(N[C@H](C)c4cccc(C(F)F)c4F)ncnc3n(C)c2=O)CCS1(=O)=O (stereo partly drawn) [Example 33-13]
66.8 nM	C[C@@H](Nc1ncnc2c1cc(C1=CCS(=O)(=NC3COC3)CC1)c(=O)n2C)c1cccc(C(F)F)c1F (stereo partly drawn) [Example 65, 4-(((R)-1-(3-(difluoromethyl)-2-fluorophenyl)ethyl)amino)-8-methyl-6-((S)-1-(oxetan-3-ylimino)-1-oxido-1,2,3,6-tetrahydro-1λ^6-thiopyran-4-yl)pyrido[2,3-d]pyrimidin-7(8H)-one]
58.3 nM	CN=S1(=O)CCC(c2cc3c(N[C@H](C)c4cccc(C(F)F)c4F)ncnc3n(C)c2=O)CC1 (single isomer, unassigned) [Example 64-3]
